Test results: patent US5554653A, “Inhibitors of HIV protease useful for the treatment of AIDS” (Eli Lilly and Company, priority 1992, dated 1996)
Converted amounts (≈) assume the structure as drawn.

Target: T1, HIV-1 protease (Human immunodeficiency virus type 1 group M subtype B, UniProt P04585)
T1 construct: Purified HIV-1 protease was obtained as described above; made in house; host or cells: E. coli K12 L507/pHP10D (NRRL B-18560)
Assay: biochemical
Format: biochemical
Conditions: for IC50: read-out: Fluorescence Assay IC50 (converted); for IC3: read-out: Fluorescence Assay IC3
Method: C. Preparation of Protease Fraction
A culture of E. coli K12 L507/pHP10D was grown to mid-log phase at 32° C. in LB media containing 12.5 μg/ml tetracycline. The cultivation temperature was quickly elevated to 40° C. to induce gene expression, and the cells were allowed to grow for 2.5 hours at this temperature before the culture was quickly chilled on ice. The cells were centrifuged and the cell pellet was resuspended in 20 mL 50 mmol MES buffer (pH 6.0) containing 1 mmol EDTA, 1 mmol DTT, 1 mmol PMSF and 10% glycerol ("Buffer A"). Cells were lysed by sonication using a Fischer Model 300 Dismembrator and a microtip probe. Following centrifugation at 27,000×g, the supernatant was diluted to a total volume of 60 mL with Buffer A and loaded onto a 2.0×19 cm QAE-Sepharose column (1 mL/min, 4° C.), that had been equilibrated in Buffer A. The column was washed isocratically for 180 min and then eluted with a gradient eluent of 0-1.0M sodium chloride in Buffer A over 120 min. Enzymatic activity was measured by HPLC using the synthetic peptide SQNYPIV as described in Margolin et al., Biochem. Biophys. Res. Commun., 167, 554-560 (1990); the production of the p1 peptide (SQNY) was measured.
The active fractions were combined, made 1.2M in ammonium sulfate, and applied to a 2.0×18 cm hexyl agarose column that had been equilibrated in Buffer A containing 1.2M ammonium sulfate. The sample was loaded at a flow rate of 1 mL/min at 4° C., washed with the equilibration buffer for 240 min (1 mL/min) and then eluted using a reverse linear gradient of 1.2-0M ammonium sulfate in Buffer A for 120 min at the same flow rate. The column was then washed isocratically in Buffer A for 120 min.
The active fractions were combined, concentrated to 10 mL using an Amicon stirred cell with a YM-10 membrane and then applied to a MonoS cation exchange column (1.0×10 cm) that had been equilibrated in Buffer A. The sample was loaded at a flow rate of 1 mL/min at 25° C. After washing isocratically for 30 min, the protease was eluted using a linear gradient of 0-0.45M sodium chloride in Buffer A over 40 min. The column was washed isocratically in Buffer A containing 0.45M sodium chloride for 30 min.
The active fractions were combined and concentrated to 200 μL using an Amicon stirred cell and a YM-10 membrane and then the protease was applied to a Superose 6 size exclusion column equilibrated in Buffer A containing 0.1M sodium chloride.
The purified peptide was labeled with a fluorescent marker at the C-terminal end for use in the Pandex assay. N^α -Biotin-[…]OH SEQ ID NO:3. (1.206 g, 0.936 mmol) was dissolved in 100 mL of 0.1M sodium borate, pH 9.5. Then, a solution of 3 g (7.7 mmol) of fluorescein isothiocyanate in 15 mL dimethyl sulfoxide was added to the reaction mixture in 10 equal portions over two hours. The resulting mixture was allowed to react for one hour after the final addition. The solution was adjusted to pH 3 using 5N hydrochloric acid, resulting in the formation of a precipitate which was removed by centrifugation.
E. Fluorescence HIV-1 Protease Inhibitor Assay
The following buffers and solutions are used in the Fluorescence HIV-1 Protease Inhibitor Assay:
MES-ALB Buffer: 0.05M 4-morpholineethane
Avidin Coated 0.1% solution of Fluoricon
Beads Solution: Avidin Assay Particles
(Avidin conjugated to solid
polystyrene beads, 0.6-0.8
microns in diameter in TBSA
27 IU/mL of purified HIV-1
protease in MES-ALB buffer
(1 IU equals the amount of
enzyme required to hydrolyze
1 μmole of substrate per
To each well of a round bottom, 96-well plate is added 20 μL of the Enzyme Solution followed by 10 μL of the compound to be evaluated in a 20% aqueous dimethylsulfoxide solution. Purified HIV-1 protease was obtained as described above.

Structure (SMILES)	IC50 [nM]	further results
CC(C)(C)NC(=O)c1ccccc1C[C@@H](O)[C@H](Cc1ccccc1)NC(=O)[C@@H](CSc1ccc2ccccc2c1)NS(C)(=O)=O [Example 17A, [2R-(2R*, 3S*, 6S*)]-N-t-Butyl-2-[2-hydroxy-3-phenylmethyl-4-aza-5-oxo-6-N (methylsulfonyl)amine-7-naphth-2-ylthio]heptyl benzamide]	1.1	
CC(C)(C)NC(=O)c1ccccc1C[C@@H](O)[C@H](Cc1ccccc1)NC(=O)[C@@H](CS(=O)(=O)c1ccc2ccccc2c1)NS(C)(=O)=O [Example 17B, [2R-(2R*,3S*,6S*)]-N-t-Butyl-2-[2-hydroxy-3-phenylmethyl-4-aza-5-oxo-6-N(methylsulfonyl)amino-7-naphth-2-ylsulfonyl]heptyl benzamide]	0.191	
CC(=O)N[C@H](CSCc1ccccc1)C(=O)N[C@@H](Cc1ccccc1)[C@H](O)Cc1ccccc1C(=O)NC(C)(C)C [Example 18A, [2R-(2R*, 3S*, 6S*)]-N-t-Butyl-2-[2-hydroxy-3-phenylmethyl-4-aza-5-oxo-6-N (ethanoyl)amino-7-benzylthio]heptyl benzamide]	12.9	
CC(=O)N[C@H](CS(=O)(=O)Cc1ccccc1)C(=O)N[C@@H](Cc1ccccc1)[C@H](O)Cc1ccccc1C(=O)NC(C)(C)C [Example 18B, [2R-(2R*, 3S*, 6S*)]-N-t-Butyl-2-[2-hydroxy-3-phenylmethyl-4-aza-5-oxo-6-N(ethanoyl)amino-7-benzylsulfonyl]heptyl benzamide]	55.9	
CC(C)(C)NC(=O)c1ccccc1C[C@@H](O)[C@H](Cc1ccccc1)NC(=O)[C@@H](CSCc1ccccc1)NC(=O)OC(C)(C)C [Example 19A, [2R-(2R*, 3S*, 6S*)]-N-t-Butyl-2-[2-hydroxy-3-phenylmethyl-4-aza-5-oxo-6-N (t-butoxycarbonyl)amino-7-benzylthio]heptyl benzamide]		IC3: 1 µg/mL
CC(C)(C)NC(=O)c1ccccc1C[C@@H](O)[C@H](Cc1ccccc1)NC(=O)[C@H](N)CSCc1ccccc1 [Example 19B, [2R-(2R*, 3S*, 6S*)]-N-t-Butyl-2-[2-hydroxy-3-phenylmethyl-4-aza-5-oxo-6-amino-7-benzylthio]heptyl benzamide]		IC16 (read-out: Fluorescence Assay IC16): 1 µg/mL
CC(C)(C)NC(=O)c1ccccc1C[C@@H](O)[C@H](Cc1ccccc1)NC(=O)[C@@H](CSCc1ccccc1)NS(C)(=O)=O [Example 19C, [2R-(2R*,3S*,6S*)]-N-t-Butyl-2-[2-hydroxy-3-phenylmethylyl-4-aza-5-oxo-6-N(methylsulfonyl)amino-7-benzylthio]heptyl benzamide]	3.6	
CC(C)(C)NC(=O)c1ccccc1C[C@@H](O)[C@H](Cc1ccccc1)NC(=O)[C@@H](C[S+]([O-])Cc1ccccc1)NS(C)(=O)=O (stereo partly drawn) [Example 19D, [2R-(2R*,3S*,6S*)]-N-t-Butyl-2-[2-hydroxy-3-phenylmethyl-4-aza-5-oxo-6-N(methylsulfonyl)amine-7-benzylsulfinyl]heptyl benzamide]	2.23	
CC(C)(C)NC(=O)c1ccccc1C[C@@H](O)[C@H](Cc1ccccc1)NC(=O)[C@@H](CS(=O)(=O)Cc1ccccc1)NS(C)(=O)=O [Example 19E, [2R-(2R*,3S*,6S*)]-N-t-Butyl-2-[2-hydroxy-3-phenylmethyl-4-aza-5-oxo-6-N(methylsulfonyl)amino-7-benzylsulfonyl]heptyl benzamide]	4.66	
CC(=O)N[C@@H](CSc1ccccc1)C(=O)N[C@@H](Cc1ccccc1)[C@H](O)Cc1ccccc1C(=O)NC(C)(C)C [Example 20B, [2R-(2R*,3S*,6R*)]-N-t-Butyl-2-[2-hydroxy-3-phenylmethyl-4-aza-5-oxo-6-N(ethanoyl)amino-7-phenylthio]heptyl benzamide]		IC8 (read-out: Fluorescence Assay IC8): 1 µg/mL
CC(=O)N[C@H](CS(=O)(=O)c1ccccc1)C(=O)N[C@@H](Cc1ccccc1)[C@H](O)Cc1ccccc1C(=O)NC(C)(C)C [Example 20C, [2R-(2R*,3S*,6S*)]-N-t-Butyl-2-[2-hydroxy-3-phenylmethyl-4-aza-5-oxo-6-N(ethanoyl)amino-7-phenylsulfonyl]heptyl benzamide]	4.88	
CSCC[C@H](NC(C)=O)C(=O)N[C@@H](Cc1ccccc1)[C@H](O)Cc1ccccc1C(=O)NC(C)(C)C [Example 21, [2R-(2R*,3S*,6S*)]-N-t-Butyl-2-[2-hydroxy-3-phenylmethyl-4-aza-5-oxo-6-N(ethanoyl)amino-8-methylthio]octyl benzamide]		IC45 (read-out: Fluorescence Assay IC45): 1 µg/mL (≈ 1.95 µM)
CC(C)(C)NC(=O)c1ccccc1C[C@@H](O)[C@H](Cc1ccccc1)NC(=O)[C@@H](CSc1ccccc1)NC(=O)OC(C)(C)C [Example 22A, [2R-(2R *,3S*,6S*)]-N-t-Butyl-2-[2-hydroxy-3-phenylmethyl-4-aza-5-oxo-6-N(t-butoxycarbonyl)amino-7-phenylthio]heptyl benzamide]		IC3: 2 µg/mL
CC(C)(C)NC(=O)c1ccccc1C[C@@H](O)[C@H](Cc1ccccc1)NC(=O)[C@H](N)CSc1ccccc1 [Example 22B, [2R-(2R*,3S*,6S*)]-N-t-Butyl-2-[2-hydroxy-3-phenylmethyl-4-aza-5-oxo-6-amino-7-phenylthio]heptyl benzamide]		IC3: 1 µg/mL
CC(C)(C)NC(=O)c1ccccc1C[C@@H](O)[C@H](Cc1ccccc1)NC(=O)[C@@H](CSc1ccccc1)NS(C)(=O)=O [Example 22C, [2R-(2R*,3S*,6S*)]-N-t-Butyl-2-[2-hydroxy-3-phenylmethyl-4-aza-5-oxo-6-N(methylsulfonyl)amino-7-phenylthio]heptyl benzamide]	18.9	
CC(C)(C)NC(=O)c1ccccc1C[C@@H](O)[C@H](Cc1ccccc1)NC(=O)[C@@H](CS(=O)(=O)c1ccccc1)NS(C)(=O)=O [Example 22D, [2R-(2R*,3S*,6S*)]-N-t-Butyl-2-[2-hydroxy-3-phenylmethyl-4-aza-5-oxo-6-N(methylsulfonyl)amino-7-phenylsulfonyl]heptyl benzamide]	2.54	
CC(C)(C)NC(=O)c1ccccc1C[C@@H](O)[C@H](Cc1ccccc1)NC(=O)[C@@H](C[S+]([O-])c1ccccc1)NS(C)(=O)=O (stereo partly drawn) [Example 22E, [2R-(2R*,3S*,6S*)]-N-t-Butyl-2-[2-hydroxy-3-phenylmethyl-4-aza-5-oxo-6-N(methylsulfonyl)amino-7-phenylsulfinyl]heptyl benzamide]	0.978	
CC(C)(C)NC(=O)c1ccccc1C[C@@H](O)[C@H](Cc1ccccc1)NC(=O)[C@@H](CSc1ccc2ccccc2n1)NS(C)(=O)=O [Example 23C, [2R-(2R*,3S*,6S*)]-N-t-Butyl-2-[2-hydroxy-3-phenylmethyl-4-aza-5-oxo-6-N(methylsulfonyl)amino-7-quinolin-2-ylthio]heptyl benzamide]	25.9	
CC(C)(C)NC(=O)c1ccccc1C[C@@H](O)[C@H](Cc1ccccc1)NC(=O)[C@@H](CS(=O)(=O)c1ccc2ccccc2n1)NS(C)(=O)=O [Example 23D, [2R-(2R*,3S*,6S*)]-N-t-Butyl-2-[2-hydroxy-3-phenylmethyl-4-aza-5-oxo-6-N(methylsulfonyl)amino-7-quinolin-2-ylsulfonyl]heptyl benzamide]	1.18	
CC(C)(C)NC(=O)c1ccccc1C[C@@H](O)[C@H](Cc1ccccc1)NC(=O)[C@@H](C[S+]([O-])c1ccc2ccccc2n1)NS(C)(=O)=O (stereo partly drawn) [Example 23E, [2R-(2R*,3S*,6S*)]-N-t-Butyl-2-[2-hydroxy-3-phenylmethyl-4-aza-5-oxo-6-N(methylsulfonyl)amino-7-quinolin-2-ylsulfinyl]heptyl benzamide]	4.06	
